Measurements as given in patent US11236069B2, “KIF18A inhibitors” (AMGEN INC., priority 2018, dated 2022).

Target: Recombinant human KIF18A (1-467 His-tagged) protein (Homo sapiens (Human), UniProt Q8NI77)
Test: KIF18A Enzyme Assay: microtubule-stimulated ATPase activity (ADP-Glo)
Settings: read-out: KIF18A ATPase IC50; 30 nM KIF18A, 30 μg/mL pig microtubules, ATP at Km 75 μM, ADP-Glo luminescence
Text: KIF18A Enzyme Assay: Microtubule-stimulated ATPase activity assay is used to measure KIF18A enzyme activity after treatment with compound. Compounds were 2-fold serially diluted in DMSO (Sigma Inc) over 22-point concentration range. […] The assay measures ADP formed from the ATPase reaction.

Sequence of Recombinant human KIF18A (1-467 His-tagged) protein (Q8NI77 1-467): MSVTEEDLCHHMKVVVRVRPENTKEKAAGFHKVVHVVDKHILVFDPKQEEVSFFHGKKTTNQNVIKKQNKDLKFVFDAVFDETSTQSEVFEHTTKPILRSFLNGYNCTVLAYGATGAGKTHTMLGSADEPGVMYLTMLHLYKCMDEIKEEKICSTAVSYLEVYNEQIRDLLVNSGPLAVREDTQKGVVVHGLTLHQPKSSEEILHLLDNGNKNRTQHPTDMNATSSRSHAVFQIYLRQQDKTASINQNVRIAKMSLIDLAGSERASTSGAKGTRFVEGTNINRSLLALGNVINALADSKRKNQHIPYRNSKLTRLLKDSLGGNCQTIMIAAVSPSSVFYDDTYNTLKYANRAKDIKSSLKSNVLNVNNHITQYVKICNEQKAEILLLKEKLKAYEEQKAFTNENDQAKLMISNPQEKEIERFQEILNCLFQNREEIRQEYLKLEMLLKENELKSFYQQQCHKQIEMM
Sequence of Recombinant human KIF18A (1-467 His-tagged) protein (P02550 whole entry partner): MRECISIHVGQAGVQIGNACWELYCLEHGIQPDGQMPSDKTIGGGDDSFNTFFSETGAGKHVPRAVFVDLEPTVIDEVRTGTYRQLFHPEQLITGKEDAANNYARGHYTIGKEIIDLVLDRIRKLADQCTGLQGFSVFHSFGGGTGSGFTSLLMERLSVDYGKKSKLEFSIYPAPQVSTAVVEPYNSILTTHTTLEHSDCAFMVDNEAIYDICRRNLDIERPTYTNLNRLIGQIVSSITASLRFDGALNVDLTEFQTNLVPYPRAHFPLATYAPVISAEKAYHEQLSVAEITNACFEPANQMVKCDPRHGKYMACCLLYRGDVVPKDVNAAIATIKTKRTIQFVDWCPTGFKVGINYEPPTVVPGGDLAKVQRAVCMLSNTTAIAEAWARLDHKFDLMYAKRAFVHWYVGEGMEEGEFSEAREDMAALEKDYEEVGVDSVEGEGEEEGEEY
Sequence of Recombinant human KIF18A (1-467 His-tagged) protein (P02554 whole entry partner): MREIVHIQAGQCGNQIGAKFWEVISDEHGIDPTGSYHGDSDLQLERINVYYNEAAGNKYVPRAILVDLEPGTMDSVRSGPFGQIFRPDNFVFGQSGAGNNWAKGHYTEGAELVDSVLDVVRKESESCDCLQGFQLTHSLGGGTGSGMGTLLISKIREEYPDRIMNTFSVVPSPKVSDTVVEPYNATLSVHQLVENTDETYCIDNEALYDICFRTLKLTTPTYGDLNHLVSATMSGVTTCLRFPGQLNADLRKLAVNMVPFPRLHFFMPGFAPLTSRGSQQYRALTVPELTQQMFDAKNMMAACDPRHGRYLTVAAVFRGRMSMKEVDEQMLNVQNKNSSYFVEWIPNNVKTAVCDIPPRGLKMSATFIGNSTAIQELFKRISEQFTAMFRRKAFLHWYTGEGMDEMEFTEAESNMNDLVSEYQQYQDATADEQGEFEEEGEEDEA

Compound | IC50
Cc1cc(NC(=O)c2ccc(NS(=O)(=O)[C@H](C)CO)cc2N2CCC3(CC2)CC3)nc(N2CC(F)(F)C2)n1 (single isomer, unassigned) [Example 11-76] | 0.02 µM
Cc1cc(NC(=O)c2ccc(NS(=O)(=O)CCO)cc2N2CCC3(CC2)CC3)nc(N2CCC3CC32)n1 (stereo not drawn) [Example 11-28, N-(2-(2-Azabicyclo[3.1.0]hexan-2-yl)-6-methylpyrimidin-4-yl)-4-((2-hydroxyethyl)sulfonamido)-2-(6-azaspiro[2.5]octan-6-yl)benzamide] | 0.059 µM
Cc1cc(NC(=O)c2ccc(NS(=O)(=O)CCO)cc2N2CCC3(CC2)CC3)nc(N2CC(O)(C(F)(F)F)C2)n1 [Example 11-18, N-(2-(3-Hydroxy-3-(trifluoromethyl)azetidin-1-yl)-6-methylpyrimidin-4-yl)-4-((2-hydroxyethyl)sulfonamido)-2-(6-azaspiro[2.5]octan-6-yl)benzamide] | 0.064 µM
Cc1cc(NC(=O)c2ccc(NS(=O)(=O)CCO)cc2N2CCC3(CC2)CC3)nc(N2CC(F)C2)n1 [Example 11-5, N-(2-(3-Fluoroazetidin-1-yl)-6-methylpyrimidin-4-yl)-4-((2-hydroxyethyl)sulfonamido)-2-(6-azaspiro[2.5]octan-6-yl)benzamide] | 0.032 µM
Cc1cc(NC(=O)c2ccc(NS(=O)(=O)CCO)cc2N2CCC3(CC2)CC3)nc(N2CC([C@H](C)O)C2)n1 [Example 11-21, (S)-N-(2-(3-(1-Hydroxyethyl)azetidin-1-yl)-6-methylpyrimidin-4-yl)-4-((2-hydroxyethyl)sulfonamido)-2-(6-azaspiro[2.5]octan-6-yl)benzamide] | 0.704 µM
Cc1cc(NC(=O)c2ccc(NS(=O)(=O)CCO)cc2N2CCC3(CC2)CC3)nc(N2CCC(C#N)CC2)n1 [Example 11-33, N-(2-(4-Cyanopiperidin-1-yl)-6-methylpyrimidin-4-yl)-4-((2-hydroxyethyl)sulfonamido)-2-(6-azaspiro[2.5]octan-6-yl)benzamide] | 0.088 µM
Cc1cc(NC(=O)c2ccc(S(C)(=O)=O)cc2N2CCC3(CC2)CC3)nc(NC[C@@H](C)O)n1 [Example 1-4, (R)-N-(2-((2-Hydroxypropyl)amino)-6-methylpyrimidin-4-yl)-4-(methylsulfonyl)-2-(6-azaspiro[2.5]octan-6-yl)benzamide] | 0.58 µM
Cc1cc(NC(=O)c2ccc(NS(=O)(=O)C[C@@H](C)O)cc2N2CCC3(CC2)CC3)nc(N2CC(F)(F)C2)n1 (single isomer, unassigned) [Example 10-1] | 0.083 µM
Cc1cc(NC(=O)c2ccc(NS(=O)(=O)[C@H](C)CO)cc2N2CCC3(CC2)CC3)nc(N2CCO[C@H](C)C2)n1 [Example 6-23-2, 4-(((R)-2-Hydroxy-1-methylethyl)sulfonamido)-N-(6-methyl-2-((R)-2-methylmorpholino)pyrimidin-4-yl)-2-(6-azaspiro[2.5]octan-6-yl)benzamide] | 0.0373 µM
Cc1cc(NC(=O)c2ccc(NS(=O)(=O)CCO)cc2N2CCC3(CC2)CC3)nc(N2CCO[C@@H](C)C2)n1 [Example 11-45, (S)-4-((2-Hydroxyethyl)sulfonamido)-N-(6-methyl-2-(2-methylmorpholino)pyrimidin-4-yl)-2-(6-azaspiro[2.5]octan-6-yl)benzamide] | 0.035 µM
Cc1cc(NC(=O)c2ccc(NS(=O)(=O)CCO)cc2N2CCC3(CC2)CC3)nc(N2CCC[C@@H]3C[C@@H]32)n1 [Example 11-44, N-(2-((1S,6R)-2-Azabicyclo[4.1.0]heptan-2-yl)-6-methylpyrimidin-4-yl)-4-((2-hydroxyethyl)sulfonamido)-2-(6-azaspiro[2.5]octan-6-yl)benzamide] | 0.033 µM
C[C@H]1CN(c2nccc(NC(=O)c3ccc(NS(=O)(=O)CCO)cc3N3CCC4(CC3)CC4)n2)CCO1 [Example 11-1, (S)-4-((2-Hydroxyethyl)sulfonamido)-N-(2-(2-methylmorpholino)pyrimidin-4-yl)-2-(6-azaspiro[2.5]octan-6-yl)benzamide] | 0.037 µM
O=C(Nc1ccnc(OCCC(F)(F)F)n1)c1ccc(S(=O)(=O)NCCO)cc1N1CCC2(CC1)CC2 [Example 17-1, 4-(N-(2-Hydroxyethyl)sulfamoyl)-2-(6-azaspiro[2.5]octan-6-yl)-N-(2-(3,3,3-trifluoropropoxy)pyrimidin-4-yl)benzamide] | 0.027 µM

Next, values leading:

IC50 | Compound
0.02 µM | Cc1cc(NC(=O)c2ccc(NS(=O)(=O)CCO)cc2N2CCC3(CC2)CC3)nc(N2CC[C@@](C)(F)C2)n1 [Example 11-27, (R)-N-(2-(3-Fluoro-3-methylpyrrolidin-1-yl)-6-methylpyrimidin-4-yl)-4-((2-hydroxyethyl)sulfonamido)-2-(6-azaspiro[2.5]octan-6-yl)benzamide]
0.144 µM | Cc1cc(NC(=O)c2ccc(NS(=O)(=O)CCO)cc2N2CCC3(CC2)CC3)nc(N2CCC(O)CC2)n1 [Example 11-37, 4-((2-Hydroxyethyl)sulfonamido)-N-(2-(4-hydroxypiperidin-1-yl)-6-methylpyrimidin-4-yl)-2-(6-azaspiro[2.5]octan-6-yl)benzamide]
0.175 µM | Cc1cc(NC(=O)c2ccc(S(=N)(=O)C(C)C)cc2N2CCC3(CC2)CC3)nc(N2CCC(F)(F)CC2)n1 (stereo not drawn) [Example 19-5, N-(2-(4,4-Difluoropiperidin-1-yl)-6-methylpyrimidin-4-yl)-4-(propan-2-ylsulfonimidoyl)-2-(6-azaspiro[2.5]octan-6-yl)benzamide]
0.281 µM | Cc1cc(NC(=O)c2ccc(NS(=O)(=O)C3([C@H](C)O)CC3)cc2N2CCC3(CC2)CC3)nc(N2CCC(F)(F)CC2)n1 [Example 6-31-2, (S)-N-(2-(4,4-Difluoropiperidin-1-yl)-6-methylpyrimidin-4-yl)-4-((1-(1-hydroxyethyl)cyclopropane)-1-sulfonamido)-2-(6-azaspiro[2.5]octan-6-yl)benzamide]
0.141 µM | Cc1cc(NC(=O)c2ccc(NS(=O)(=O)C[C@H](C)O)cc2N2CCC3(CC2)CC3)nc(N2CCC(F)(F)CC2)n1 [Example 6-32-2, (S)-N-(2-(4,4-Difluoropiperidin-1-yl)-6-methylpyrimidin-4-yl)-4-((2-hydroxypropyl)sulfonamido)-2-(6-azaspiro[2.5]octan-6-yl)benzamide]
0.0922 µM | Cc1cc(NC(=O)c2cc(Cl)c(NS(=O)(=O)CCO)cc2N2CCC3(CC2)CC3)nc(N2CCC(F)(F)CC2)n1 [Example 6-34, 5-Chloro-N-(2-(4,4-difluoropiperidin-1-yl)-6-methylpyrimidin-4-yl)-4-((2-hydroxyethyl)sulfonamido)-2-(6-azaspiro[2.5]octan-6-yl)benzamide]
0.064 µM | Cc1cc(NC(=O)c2ccc([S@](=N)(=O)C3CC3)cc2N2CCC3(CC2)CC3)nc(N2CCC(F)(F)CC2)n1 (single isomer, unassigned) [Example 18-1, 2-(6-Azaspiro[2.5]octan-6-yl)-4-(R-cyclopropylsulfonimidoyl)-N-(2-(4,4-difluoro-1-piperidinyl)-6-methyl-4-pyrimidinyl)benzamide]
0.063 µM | Cc1cc(NC(=O)c2ccc(NS(=O)(=O)CCO)cc2N2CCC3(CC2)CC3)nc(N2CCC(C)(F)CC2)n1 [Example 11-52, N-(2-(4-Fluoro-4-methylpiperidin-1-yl)-6-methylpyrimidin-4-yl)-4-((2-hydroxyethyl)sulfonamido)-2-(6-azaspiro[2.5]octan-6-yl)benzamide]
